{
  "source": "patent US20150064328A1",
  "about": "“REBAUDIOSIDE C AND ITS STEREOISOMERS AS NATURAL PRODUCT SWEETNESS ENHANCERS” (Redpoint Bio Corporation, priority 2009, published 2015)",
  "key": {"[1]": {"assay": "Double-blind controlled sweetness intensity test, sequential monadic, sip and spit (Example 1 protocol)", "assay_type": "in vivo, human", "excerpt": "As used herein, the term “sweetness intensity” refers to the relative strength of sweet sensation as observed or experienced by an individual, e.g., a human, or a degree or amount of sweetness detected by a taster, for example on the scale from 0 (none) to 8 (very strong) (see Example 1) used in sensory evaluations according to the procedure described in American Society for Testing Materials, Special Technical Publication-434: “Manual on Sensory Testing Methods,” ASTM International, West Conshohocken, Pa. (1996). The sweetness enhancing effect of 300 μM Reb C (Chromadex, CA; purity 94.9%; 2.9% impurities other than water) on 5% (w/v-%) sucrose solution was evaluated in a double-blind controlled test conducted according to the following protocol. Three products were evaluated by trained judges as follows: • high concentration sucrose (7% w/v) • low concentration sucrose (5% w/v) • low concentration sucrose+sweetness enhancer (test compound) The products were evaluated using a sequential monadic test protocol. Subjects were given three samples to evaluate. Each subject was directed to swirl the first sample in his or her mouth for 3-5 seconds, expectorate the entire sample into a discard cup, and then assess the sweetness intensity of the sample. The intensity was rated on a score card by marking a numerical value along a scale from 0 to 8 (e.g., 0-none, 2=slight, 4=definite, 8=very strong). Following the decision regarding the sweetness intensity, subjects were instructed to rinse their mouth with water and spit in the discard cup. Subjects then were given unsalted crackers to cleanse the palate. A period of 10 minutes elapsed between presentations of each sample to reduce the potential influence of residual taste effects. A second sample was then presented and evaluated as above and the same procedure was followed until all three products were evaluated. Sample presentation was randomized to avoid order of presentation bias. To participate in the sensory panel, judges or subjects were chosen from an expert taste panel. These subjects were screened for taste acuity and were trained in evaluating solutions using the sip and spit protocol and were trained in using a rating ballot. The number of judges who participated in the study was 20. The female subjects were all non-pregnant and all volunteers were of <55 years of age with no history of allergy to sucrose. Judges were asked to execute an informed consent form. Specifically, the following instructions were given to the judges: Please take a sip of water. Carefully take the cap off the sample cup placed in front of you. Sip, swirl for 3-5 seconds, and then spit the sample into the cup provided, then assess the intensity of the sweetness of the sample. Please evaluate the sample for the intensity of the sweet flavor and put a vertical mark on the number that best describes the intensity. Rinse your mouth with the water provided and spit into the discard cup. Use crackers provided to cleanse your palate before evaluating the next sample. If any other flavor was present in the sample please describe it. Please rinse your mouth again several times and have some more water and unsalted crackers. You will now have a rest period of 10 minutes before you will be given the next sample."}, "[2]": {"details": "cited from earlier work"}, "[3]": {"assay": "Double-blind controlled sweetness intensity test, sequential monadic, taste and swallow (Example 6 protocol)", "assay_type": "in vivo, human"}, "[4]": {"assay": "Quantitative taste profile by trained panel (sweet, bitter, salt, sour, licorice)", "assay_type": "in vivo, human", "method": "The taste of 150, 300, and 600 μM Reb C was evaluated by a test group. 10 panelists were trained over a period of a few weeks to provide a quantitative flavor profile of Reb C. Panelists first were trained using standard tastants representing the different taste modalities given in FIG. 7 (i.e., sweet, bitter, salt, sour, and licorice). They then were trained to use the scales when flavors were mixed together. All intensity ratings are on scales ranging from 0 (no taste) to 8 (highest intensity). The intensity rating for sweet is essentially the same as used in Examples 1 and 6. The taste profiles were obtained for 150, 300, and 600 μM Reb C. Reb A (0.2 mg/ml, a concentration used in some food/beverage applications for sweetening) was also evaluated in the test for comparison. The scale is not linear at the bottom. A rating of 1 is around the threshold for sweetness detection."}, "[5]": {"assay": "Open qualitative taste report of Reb C water solutions", "assay_type": "in vivo, human", "details": "250 and 300 μM Reb C in water; all 4 subjects gave the same description", "method": "The taste of 250 μM and 300 μM Reb C solutions were evaluated as follows by another test group having four (4) subjects as follows: 10 ml solutions of 250 and 300 μM Reb C in water were sampled by four subjects who were asked to report their qualitative taste experience of the solutions."}, "[6]": {"assay": "Forced-choice taste test of Reb C water solution versus water", "assay_type": "in vivo, human", "details": "250 μM Reb C water solution", "method": "The taste of a 250 μM Reb C solution was evaluated by a test group having five (5) subjects as follows (Forced-choice): Subjects were presented with 2 cups, each containing 10 ml of either 250 μM Reb C water solution or water (room temperature). […] Subjects were asked to sip most or all of the 10 ml from the first cup, swish the liquid in their oral cavity, and expectorate into a cup, then rinse their mouths vigorously with water. Soon thereafter, the contents of the second cup were sampled in the same manner. Then, subjects were asked to choose the sweeter of the two samples, or if not sweet, to describe the qualitative taste profile of the sample having a detectable taste."}, "[7]": {"details": "sweetness intensities equivalent to 3% (w/v-%) sucrose"}, "[8]": {"details": "sweetness intensities equivalent to 7% (w/v-%) sucrose"}, "[9]": {"details": "300 μM Reb C in 8% (w/v-%) fructose solution, FIG. 16"}},
  "note": "Entries after “also recorded” stand apart in the source; their conditions may differ.",
  "data": [
    {"compound": "OC[C@H]1O[C@@](CO)(O[C@H]2O[C@H](CO)[C@@H](O)[C@H](O)[C@H]2O)[C@@H](O)[C@@H]1O", "note": "[sucrose, α-D-glucopyranosyl-(1->2)-β-D-fructofuranose, reference compound]", "values": [
      {"measurement": "mean sweetness intensity score", "setting": "[1]; 11% (w/v-%) sucrose solution, high concentration comparator, scale 0 to 8", "value": 6.95}
    ]},
    {"compound": "C=C1C[C@@]23CC[C@H]4[C@@](C)(CCC[C@@]4(C)C(=O)O[C@@H]4O[C@H](CO)[C@@H](O)[C@H](O)[C@H]4O)[C@@H]2CC[C@]1(O[C@@H]1O[C@H](CO)[C@@H](O)[C@H](O[C@@H]2O[C@H](CO)[C@@H](O)[C@H](O)[C@H]2O)[C@H]1O[C@@H]1O[C@H](CO)[C@@H](O)[C@H](O)[C@H]1O)C3", "note": "[rebaudioside A]", "values": [
      {"measurement": "effect in mixtures with fructose and glucose", "setting": "[2]; [7]", "value": "additive effect"},
      {"measurement": "effect in mixtures with sucrose", "setting": "[2]; [7]", "value": "synergistic effect"},
      {"measurement": "effect in mixtures with fructose, glucose and sucrose", "setting": "[2]; sweetness intensities equivalent to 5% (w/v-%)", "value": "additive effect"},
      {"measurement": "effect with a mixture with sucrose", "setting": "[2]; [8]", "value": "additive effect"},
      {"measurement": "effect with mixtures with glucose and fructose", "setting": "[2]; [8]", "value": "suppressive effect"}
    ]},
    {"compound": "C=C1C[C@@]23CC[C@H]4[C@@](C)(CCC[C@@]4(C)C(=O)O[C@@H]4O[C@H](CO)[C@@H](O)[C@H](O)[C@H]4O)[C@@H]2CC[C@]1(O[C@@H]1O[C@H](CO)[C@@H](O)[C@H](O[C@@H]2O[C@H](CO)[C@@H](O)[C@H](O)[C@H]2O)[C@H]1O[C@@H]1O[C@@H](C)[C@H](O)[C@@H](O)[C@H]1O)C3", "note": "[Reb C, Rebaudioside C]", "values": [
      {"measurement": "statistical significance of the effect of Reb C", "setting": "[3]; [9]", "value": "not statistically significant"},
      {"measurement": "sweetness of fructose solution in combination with Reb C", "setting": "[3]; [9]", "value": "between that of the 8% (w/v-%) fructose solution and that of an 11% (w/v-%) fructose solution"},
      {"measurement": "sweetness of iced tea with sucrose in combination with Reb C", "setting": "[3]; 300 μM Reb C in iced tea with 8% (w/v-%) sucrose, FIG. 6", "value": "between that of the 8% (w/v-%) sucrose solution and that of an 11% (w/v-%) sucrose solution"},
      {"measurement": "sweetness of iced tea with HFCS55 in combination with Reb C", "setting": "[3]; 300 μM Reb C in iced tea with 10.39% (w/v-%) HFCS55, 20 judges, FIG. 5", "value": "indistinguishable from that of a 14.29% (w/v-%) HFCS55 (HFCS) solution"},
      {"measurement": "sweetness intensity of cola beverage with HFCS55 in combination with Reb C", "setting": "[3]; 190 ppm Reb C, 10.39% (w/v-%) HFCS55, buffered with citric acid, pH 2.7-2.8, FIG. 10", "value": "significantly increases the sweetness intensity to that of 14.29% HFCS55"},
      {"measurement": "sweetness of cola beverage with HFCS55 in combination with Reb C", "setting": "[3]; 190 ppm Reb C, 10.39% (w/v-%) HFCS55, buffered with phosphoric acid, FIG. 14", "value": "not higher than that of 10.39% (w/v-%) HFCS55 cola beverage alone"},
      {"measurement": "sweetness of lemon-lime soda with HFCS55 in combination with Reb C", "setting": "[3]; 190 ppm Reb C, 10.39% (w/v-%) HFCS55, citric acid 0.15%, pH 2.6-2.7, FIG. 12", "value": "did not reach the sweetness of a 14.29% (w/v-%) HFCS55 solution"},
      {"measurement": "sweetness of erythritol solution in combination with Reb C", "setting": "[3]; 285 ppm (300 μM) Reb C in 7.14% erythritol solution, equivalent to 5% (w/v-%) sucrose, FIG. 9", "value": "significantly sweeter than the 7.14% erythritol solution alone, but did not achieve the sweetness of a 10% erythritol solution"},
      {"measurement": "sweetness intensity of cola beverage with HFCS55 in combination with Reb C", "setting": "[3]; 310 ppm Reb C, 10.39% (w/v-%) HFCS55, buffered with phosphoric acid, FIG. 15", "value": "increased significantly the sweetness intensity of a cola beverage containing 10.39% (w/v-%) HFCS55, but did not reach the sweetness of a 14.29% (w/v-%) HFCS55 cola beverage"},
      {"measurement": "sweetness of unsweetened cola beverage with Reb C", "setting": "[3]; concentrations 190 ppm or below (95, 190 and 285 ppm tested), FIG. 11", "value": "does not increase the sweetness of an unsweetened cola beverage"},
      {"measurement": "sweetness of unsweetened lemon-lime soda with Reb C", "setting": "[3]; control group of Example 11, concentrations 190 ppm or below (95, 190 and 285 ppm tested)", "value": "does not increase the sweetness of an unsweetened cola beverage"},
      {"measurement": "unpleasant tastes, bitter and licorice", "setting": "[4]; 150, 300 and 600 μM Reb C alone, FIG. 7", "value": "barely detected"},
      {"measurement": "intrinsic sweetness", "setting": "[4]; 150, 300 and 600 μM Reb C, 10 panelists, scale 0 to 8, FIG. 7", "value": "little or no intrinsic sweetness"},
      {"measurement": "unpleasant tastes, bitter and licorice, when combined with sugar", "setting": "[4]; Reb C combined with sugar", "value": "undetected"},
      {"measurement": "qualitative taste description", "setting": "[5]", "value": "Both concentrations bitter and/or licorice"},
      {"measurement": "sweetness of sucrose solution in combination with Reb C", "setting": "[1]; 150 μM Reb C in 8% (w/v-%) sucrose solution, FIG. 4", "value": "between that of the 8% (w/v-%) sucrose solution and that of an 11% (w/v-%) sucrose solution"},
      {"measurement": "sweetness of fructose solution in combination with Reb C", "setting": "[1]; 300 μM Reb C in 5% (w/v-%) fructose solution, FIG. 2", "value": "close to that of a 7% (w/v-%) fructose solution"},
      {"measurement": "sweetness of sucrose solution in combination with Reb C", "setting": "[1]; 300 μM Reb C in 5% (w/v-%) sucrose solution, 20 judges, scale 0 to 8, FIG. 1", "value": "indistinguishable from that of a 7% (w/v-%) sucrose solution"},
      {"measurement": "sweetness of sucrose solution in combination with Reb C", "setting": "[1]; 300 μM Reb C in 8% (w/v-%) sucrose solution, FIG. 3", "value": "close to that of an 11% (w/v-%) sucrose solution"},
      {"measurement": "mean sweetness intensity score", "setting": "[1]; 8% (w/v-%) sucrose solution with 150 μM Reb C, scale 0 to 8, 8% sucrose solution alone scored 5.30", "value": 6.10},
      {"measurement": "identification of the sample containing Reb C versus water", "setting": "[6]; 5 subjects, forced-choice", "value": "All subjects correctly identified the sample containing Reb C"},
      {"measurement": "qualitative taste description, one per subject", "setting": "[6]; subjects 1 to 5", "value": "Metallic, not sweet; also recorded: Aversive (“Nasty”); also recorded: Slight sweet, astringent; also recorded: Faintly sweet; also recorded: Slight sweet/licorice"}
    ]}
  ]
}
